Experimental findings from paper PMC11851430, “Workflow for E3 Ligase Ligand Validation for PROTAC Development” (ACS Chemical Biology, 2025) are described below.

SMILES strings stand for the structures.

For experiment [1], the system named is kinase expression levels in Jurkat cells. The experiment in a line: Label-free quantitative proteomics of kinase parent inhibitors. The experiment is classed as cell-based, human. Particulars: 6 h. The protocol:
CO2. After incubation, the BRET signals were measured by a PHERAstar plate reader (BMG Labtech) following the same procedure as intact NanoBRET® measurement. Competitive displacement data were then normalized to controls and were plotted using GraphPad Prism 9 software employing a normalized 3-parameter curve fit with the following equation: […]
The effects of the compounds on cell viability was determined using the CellTiter-Glo® 2.0 Cell Viability Assay (Promega: G9241) following manufacturer’s protocol. Ten µL of Jurkat cells at […]
After equilibration, PROTACs were titrated at various concentrations using an Echo acoustic […]
volume of CellTiter-Glo® 2.0 reagent (10 µL) was added to each well and cells were incubated for 10 minutes at room temperature. Filtered luminescence was measured on a PHERAstar plate reader (BMG Labtech) and data was evaluated using GraphPad Prism 9 software employing a normalized curve it with the following equation: Y=Bottom + (Top-Bottom)/(1+10(LogEC50-X) *HillSlope).
Sample preparation. Jurkat cells (ATCC © HTB-22) were cultured in RPMI (Thermo:
Cells were seeded in 6 well plates (Greiner:
50 µl of SDS Lysis Buffer (2% SDS, 50 mM TRIS pH 8.5, 10 mM TCEP, 40 mM CAA) was added to each sample. Cells were transferred into low binding reaction tubes (Eppendorf: […]
Protein yield was determined by […]

For experiment [2], the target named is T1, kinase protein levels in MCF-7 cells (Homo sapiens, UniProt Q9BTL3).
T1 construct: endogenous in cells; host or cells: MCF-7
T1 sequence (Q9BTL3 whole entry): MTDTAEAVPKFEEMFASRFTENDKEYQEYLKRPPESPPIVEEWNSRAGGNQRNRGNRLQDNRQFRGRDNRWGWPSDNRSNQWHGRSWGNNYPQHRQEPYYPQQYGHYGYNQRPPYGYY
The experiment in a line: TMT-labeled quantitative proteomics. The format is cell-based. Particulars: protein FAM103A1; MCF7; 1 µM; set5.

Turning to `CCOC(=O)c1cc(Nc2cc(C3CC3)[nH]n2)nc(Nc2ccc(CC#N)cc2)n1` [compound 5], the “kinases with reduced protein levels” value in experiment [1] (0.25 μM) is “reduced protein levels of PLK1 and BUB1”; in experiment [1] (2.5 μM) it was “no additional kinases showed lower protein levels”.

`Cc1ncsc1-c1ccc(CNC(=O)[C@@H]2C[C@@H](O)CN2C(=O)[C@@H](NC(=O)CCCCCCN2CCN(c3ccc(Nc4ncc(Cl)c(Nc5ccccc5C(N)=O)n4)cc3)CC2)C(C)(C)C)cc1` [6-d]: in experiment [2], the “P.Value (compound/DMSO)” value is on record as 0.1981 and the “log2FC (compound/DMSO)” value is recorded as -0.2114.
